In series [1] the test system is SKOV3 ovarian carcinoma cell line. In words: Cellular cytotoxicity assay (Alamar Blue), SKOV3. In kind it is cell-based. As to conditions: Homo sapiens, SK-OV-3; 72 h; only a range over the listed compounds is given; read-out: Cytotoxicity towards SKOV3 cell line IC50. Here is the method: (§1) The anti-proliferative activity of the chimeric HDAC and protein kinase inhibitory chimeric compounds of the present invention was evaluated using HeLa cervical carcinoma, A549 NSCLC, SKOV3 ovarian carcinoma, Cal27 head and neck cancer, K562 chronic myeloid leukemia (CML) and EOL1 acute hypereosinophilic myeloid leukemia, cell lines. For quantification of cellular proliferation/living cells the Alamar Blue (Resazurin) cell viability assay was applied (O'Brien et al. Eur Biochem. 267, 5421-5426, 2000). In this assay Resazurin is reduced to the fluorescent resorufin by cellular dehydrogenase activity, correlating with viable, proliferating cells. The examples were dissolved as 20 mM solutions in dimethylsulfoxide (DMSO) and subsequently diluted in semi-logarithmic steps. Cell lines were seeded at respective density into 96 well flat bottom plates in a volume of 200 μl per well. 24 h after seeding 1 μl each of the compound dilutions were added into each well of the 96 well plate. Each compound dilution was tested as quadruplicates. Wells containing untreated control cells were filled with […] DMEM medium containing 0.5% v:v DMSO. The cells were then incubated with the substances for 72 h at 37° C. in a humidified atmosphere containing 5% carbon dioxide. To determine the viability of the cells, 20 μl of an Resazurin solution (Sigma; 90 mg/l) were added. After 4 h incubation at 37° C. the fluorescence was measured at an extinction of 544 nm and an emission of 590 nm. For the calculation of the cell viability the emission value from untreated cells was set as 100% viability and the emission rates of treated cells were set in relation to the values of untreated cells. Viabilities were expressed as % values. The corresponding IC50 values of the compounds for cytotoxic activity are determined from the concentration-effect curves by means of non-linear regression.
On the technique in general: Resazurin is reduced to fluorescent resorufin, in cell work by metabolically active cells.

A further series deals with A549 NSCLC cell line. In words: Cellular cytotoxicity assay (Alamar Blue), A549. The format is cell-based. As to conditions: Homo sapiens, A549; 72 h; only a range over the listed compounds is given; read-out: Cytotoxicity towards A549 NSCLC cell line IC50. The method, then: as §1
The subject of series [2] is HeLa cervical carcinoma cell line. In words: Cellular cytotoxicity assay (Alamar Blue), HeLa. The format is cell-based. To be noted: Homo sapiens, 72 h, only a range over the listed compounds is given, read-out: Cytotoxicity towards HeLa cervical cell line IC50. Here is the method:
as §1

Series [3] has as its target T1, recombinant HDAC1 isolated from HEK293 cells with heterologous HDAC1 expression (Homo sapiens, UniProt Q13547).
T1 construct: made in house
In words: Fluorimetric rHDAC1 activity assay. As to conditions: only a range of IC50 over the compounds given; read-out: rHDAC1 inhibitory activity IC50. In kind it is biochemical.

The source of these data is patent publication US20110065734A1, “NOVEL BIFUNCTIONAL COMPOUNDS WHICH INHIBIT PROTEIN KINASES AND HISTONE DEACETYLASES” (4SC AG, priority 2007, published 2011).

Counter-ions that a name gives are not always drawn. Where only a bound is given, the exact number is not on record here.

T1 sequence (Q13547 whole entry): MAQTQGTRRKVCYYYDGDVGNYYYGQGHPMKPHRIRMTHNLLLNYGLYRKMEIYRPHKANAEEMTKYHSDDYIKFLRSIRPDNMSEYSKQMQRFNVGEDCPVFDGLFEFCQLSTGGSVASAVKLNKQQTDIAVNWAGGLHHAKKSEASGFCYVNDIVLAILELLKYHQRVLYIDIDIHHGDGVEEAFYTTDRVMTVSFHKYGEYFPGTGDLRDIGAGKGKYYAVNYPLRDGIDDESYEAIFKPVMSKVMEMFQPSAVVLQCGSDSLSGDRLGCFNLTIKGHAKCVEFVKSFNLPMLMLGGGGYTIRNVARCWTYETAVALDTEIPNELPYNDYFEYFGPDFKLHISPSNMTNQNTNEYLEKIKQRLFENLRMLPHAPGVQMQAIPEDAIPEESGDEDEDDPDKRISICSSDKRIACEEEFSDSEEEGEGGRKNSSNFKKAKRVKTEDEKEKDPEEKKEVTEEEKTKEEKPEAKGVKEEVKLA

Consider `C#Cc1cccc(Nc2ncnc3ccc(NC(=O)c4ccc(C(=O)Nc5ccccc5N)s4)cc23)c1` [[38], Thiophene-2,5-dicarboxylic acid 2-[(2-amino-phenyl)-amide]-5-{[4-(3-ethynyl-phenylamino)-quinazolin-6-yl]-amide}], for which the IC50 (commonly the concentration needed to halve the response being measured) is not below 0.56 µM in series [1], not below 0.24 µM in the series with A549 NSCLC cell line and not below 0.5 µM in series [2].

In the case of `C#Cc1cccc(Nc2ncnc3cc(NC(=O)c4cccc(/C=C/C(=O)Nc5ccccc5N)c4)ccc23)c1` [[42], (E)-3-(3-(2-aminophenylamino)-3-oxoprop-1-enyl)-N-(4-(3-ethynylphenylamino)quinazolin-7-yl)benzamide], the melting point (in general, the temperature, or range, at which the solid turns liquid) lay in the range of 190 to 194.2 °C. Besides, the IC50 in series [3] is not below 0.0065 µM. Turning to `C#Cc1cccc(Nc2ncnc3ccc(OCc4ccc(C(=O)Nc5ccccc5N)cc4)cc23)c1` [[44], N-(2-aminophenyl)-4-((4-(3-ethynylphenylamino)quinazolin-6-yloxy)methyl)benzamide], in series [3], the IC50 is not below 0.0065 µM. `O=C(NO)c1ccc(C(=O)Nc2cccc(Nc3nc(-c4cccnc4)cs3)c2)cc1` [[17], N^1-hydroxy-N^4-(3-(4-(pyridin-3-yl)thiazol-2-ylamino)phenyl)terephthalamide] yielded a melting point of 205.5 °C. Also, the IC50 in the series on A549 NSCLC cell line is not below 2.95 µM. Molecule `O=C(/C=C/c1ccc(C(=O)Nc2cccc(Nc3nc(-c4cccnc4)cs3)c2)cc1)NO` [[22], (E)-4-(3-(hydroxyamino)-3-oxoprop-1-enyl)-N-(3-(4-(pyridin-3-yl)thiazol-2-ylamino)phenyl)benzamide] came in with a melting point of 100.6 °C. In addition, the IC50 in series [3] was in the range of 0.077 to 1.4 µM.

`Nc1ccccc1NC(=O)c1ccc(C(=O)Nc2cccc(Nc3nc(-c4cccnc4)cs3)c2)s1` (as salt: salt) [[28], N^2-(2-aminophenyl)-N^5-(3-(4-(pyridin-3-yl)thiazol-2-ylamino)phenyl)thiophene-2,5-dicarboxamide] yielded a melting point of 222.3 °C. Molecule `Cc1ccc(NC(=O)c2ccc(C(=O)Nc3ccccc3N)s2)cc1Nc1nc(-c2cccnc2)cs1` [[27], N^2-(2-aminophenyl)-N^5-(4-methyl-3-(4-(pyridin-3-yl)thiazol-2-ylamino)phenyl)thiophene-2,5-dicarboxamide] displayed a melting point of 242.4 °C. The same measure, in the same setting: then `Cc1ccc(NC(=O)c2ccc(C(=O)Nc3ccccc3N)nc2)cc1Nc1nccc(-c2cccnc2)n1` [[23], N^2-(2-aminophenyl)-N^5-(4-methyl-3-(4-(pyridin-3-yl)pyrimidin-2-ylamino)phenyl)pyridine-2,5-dicarboxamide], with 150.5 to 152.5 °C. Consider `C#Cc1cccc(Nc2ncnc3cc(NC(=O)c4ccc(C(=O)Nc5ccccc5N)cc4)ccc23)c1` [[41], N-(2-Amino-phenyl)-N′-[4-(3-ethynyl-phenylamino)-quinazolin-7-yl]-terephthalamide], for which, in series [1], the IC50 was not below 0.56 µM. As for `C#Cc1cccc(Nc2ncnc3ccc(NC(=O)c4ccc(C(=O)Nc5ccccc5N)cc4)cc23)c1` [[37], N-(2-Amino-phenyl)-N′-[4-(3-ethynyl-phenylamino)-quinazolin-6-yl]-terephthalamide], the melting point was 253 to 258 °C. Also, the IC50 in series [1] is not below 0.56 µM. For the same molecule, the IC50 with A549 NSCLC cell line was not below 0.24 µM. The IC50 in series [2] was not below 0.5 µM. `Nc1ccccc1NC(=O)c1ccc(C(=O)Nc2cccc(Nc3nc(-c4cccnc4)cs3)c2)cc1` (hydrate or solvate) [[18], N^1-(2-aminophenyl)-N^4-(3-(4-(pyridin-3-yl)thiazol-2-ylamino)phenyl)terephthalamide hydrate] registered a melting point of 224.8 to 224.9 °C.

`Nc1ccccc1NC(=O)c1ccc(COc2ccc3ncnc(Nc4cccc(Br)c4)c3c2)cc1` [[43], N-(2-aminophenyl)-4-((4-(3-bromophenylamino)quinazolin-6-yloxy)-methyl)benzamide] returned a melting point of 215 to 218 °C.

Turning to `Nc1ccccc1NC(=O)/C=C/c1ccc(-c2ccc3ncnc(Nc4ccc(OCc5cccc(F)c5)c(Cl)c4)c3c2)o1` [[13], (E)-N-(2-aminophenyl)-3-(5-(4-(3-chloro-4-(3-fluorobenzyloxy)phenylamino)quinazolin-6-yl)furan-2-yl)acrylamide], the IC50 in series [3] is not below 0.0353 µM; in the series on A549 NSCLC cell line, not below 1.1 µM. As for `Nc1ccccc1NC(=O)c1ccc(C(=O)Nc2cccc(Nc3nccc(-c4cccnc4)n3)c2)cc1` [[31], N-(2-Amino-phenyl)-N′-[3-(4-pyridin-3-yl-pyrimidin-2-ylamino)-phenyl]-terephthalamide], the IC50 in the series with A549 NSCLC cell line is not below 2.95 µM. Regarding `Nc1ccccc1NC(=O)/C=C/c1ccc(-c2ccc3ncnc(Nc4ccc(OCc5cccc(F)c5)c(Cl)c4)c3c2)cc1` [[10], (E)-N-(2-aminophenyl)-3-(4-(4-(3-chloro-4-(3-fluorobenzyloxy)phenylamino)quinazolin-6-yl)phenyl)acrylamide], the IC50 in series [3] was not below 0.0353 µM; in the series with A549 NSCLC cell line it was not below 1.1 µM. Molecule `Cc1ccc(NC(=O)c2ccc(C(=O)Nc3ccccc3N)cc2)cc1Nc1nc(-c2cccnc2)cs1` [[21], N^1-(2-aminophenyl)-N^4-(4-methyl-3-(4-(pyridin-3-yl)thiazol-2-ylamino)phenyl)terephthalamide] showed a melting point of 147.1 °C. On to `Nc1ccccc1NC(=O)c1ccc(C(=O)Nc2ccc(Cl)c(Nc3nccc(-c4cccnc4)n3)c2)cc1` [[32], N-(2-Amino-phenyl)-N′-[4-chloro-3-(4-pyridin-3-yl-pyrimidin-2-ylamino)-phenyl]-terephthalamide compound with hydrochloric acid], for which, in the series on A549 NSCLC cell line, the IC50 was not below 2.95 µM.

As for `O=C(/C=C/c1ccc(C(=O)Nc2cccc(Nc3nc(-c4cccnc4)cs3)c2)s1)NO` [[34], (E)-5-(3-(hydroxyamino)-3-oxaprop-1-enyl)-N-(3-(4-(pyridin-3-yl)thiazol-2-ylamino)phenyl)thiophene-2-carboxamide], the melting point stood at 205.6 °C. Besides, in the series on A549 NSCLC cell line, the IC50 is not below 2.95 µM. Take `Nc1ccccc1NC(=O)CCc1ccc(-c2ccc3ncnc(Nc4ccc(OCc5cccc(F)c5)c(Cl)c4)c3c2)cc1` [[12], N-(2-aminophenyl)-3-(4-(4-(3-chloro-4-(3-fluorobenzyloxy)phenylamino)quinazolin-6-yl)phenyl)propanamide]: the IC50 is not below 0.0353 µM in series [3] and not below 1.1 µM in the series on A549 NSCLC cell line.
